Measured values: patent US20160108008A1, “Substituted N-(Tetrazol-5-yl)- and N-(Triazol-5-yl)arylcarboxamide Compounds and Their Use as Herbicides” (BASF SE, priority 2013, published 2016)
Marks after values point to notes of the source that are not given here.

What was measured:
Assay type in all cases: in vivo
Chenopodium album = test: greenhouse post-emergence treatment, CHEAL; conditions: scale 0-100
Text: (§1) The culture containers used were plastic flowerpots containing loamy sand with approximately 3.0% of humus as the substrate. The seeds of the test plants were sown separately for each species.
(§2) For the post-emergence treatment, the test plants were first grown to a height of 3 to 15 cm, depending on the plant habit, and only then treated with the active ingredients which had been suspended or emulsified in water. For this purpose, the test plants were either sown directly and grown in the same containers, or they were first grown separately as seedlings and transplanted into the test containers a few days prior to treatment.
(§3) Depending on the species, the plants were kept at 10-25° C. or 20-35° C. The test period extended over 2 to 4 weeks. During this time, the plants were tended, and their response to the individual treatments was evaluated.
(§4) Evaluation was carried out using a scale from 0 to 100. 100 means no emergence of the plants, or complete destruction of at least the aerial moieties, and 0 means no damage, or normal course of growth. A good herbicidal activity is given at values of at least 70 and a very good herbicidal activity is given at values of at least 85.
(§5) The plants used in the greenhouse experiments belonged to the following species:
(§6) Following representative compounds of formula I according to Table 9 were used in post-emergence treatments in greenhouse experiments (values labeled with * result from pre-emergence experiments): […]

Amaranthus retroflexus [1] = test: greenhouse post-emergence treatment, AMARE; conditions: scale 0-100
Text: as §1, §2, §3, §4, §5, §6

Setaria viridis = test: greenhouse post-emergence treatment, SETVI; conditions: 500 g/ha, scale 0-100
Text: as §1, §2, §3, §4
(§7) The plants used in the greenhouse experiments belonged to the following species: […]

Amaranthus retroflexus [2] = test: greenhouse pre-emergence treatment, AMARE; conditions: pre-emergence (value labeled *), 250 g/ha; scale 0-100
Text: as §1
(§8) For the pre-emergence treatment, the active ingredients, which had been suspended or emulsified in water, were applied directly after sowing by means of finely distributing nozzles. The containers were irrigated gently to promote germination and growth and subsequently covered with transparent plastic hoods until the plants had rooted. This cover caused uniform germination of the test plants, unless this has been impaired by the active ingredients.
as §3, §4, §5, §6

Polygonum convolvulus = test: greenhouse post-emergence treatment, POLCO; conditions: scale 0-100
Text: as §1, §2, §3, §4, §5, §6

Abutilon theophrasti = test: greenhouse pre-emergence treatment, ABUTH; conditions: pre-emergence (value labeled *), 250 g/ha; scale 0-100
Text: as §1, §8, §3, §4, §5, §6

Agrostis spica-venti = test: greenhouse pre-emergence treatment, APESV; conditions: pre-emergence (value labeled *), 500 g/ha; scale 0-100
Text: as §1, §8, §3, §4, §5, §6

Echinochloa crus-galli [3] = test: greenhouse post-emergence treatment, ECHCG; conditions: 500 g/ha, scale 0-100
Text: as §1, §2, §3, §4, §5, §6

Echinochloa crus-galli [4] = test: greenhouse pre-emergence treatment, ECHCG; conditions: pre-emergence (value labeled *), 500 g/ha; scale 0-100
Text: as §1, §8, §3, §4, §7

Row | Structure (SMILES) | [%] damage to weed VI (CHEAL) (Chenopodium album; 500 g/ha) | [%] damage to weed III (AMARE) (Amaranthus retroflexus [1]; 500 g/ha) | [%] damage to weed VI (CHEAL) (Chenopodium album; 250 g/ha) | [%] damage to weed III (AMARE) (Amaranthus retroflexus [1]; 250 g/ha) | [%] damage to weed IX (POLCO) (Polygonum convolvulus; 250 g/ha) | [%] damage to weed I (ABUTH) (Abutilon theophrasti) | further results
1 | Cc1c(C(=O)Nc2nnnn2C)cc(F)cc1S(C)(=O)=O [compound 7] | 100% | 100% |  |  |  |  | [%] damage to weed XI (SETVI) (Setaria viridis): 100%
2 | Cc1c(C(=O)Nc2ncnn2C)cc(F)cc1S(C)(=O)=O [compound 10] |  |  | 100% | 100; % | 100% |  | [%] damage to weed III (AMARE) (Amaranthus retroflexus [2]): 95* %
3 | CCSc1c(Cl)cc(F)c(C(=O)Nc2ncnn2C)c1Cl [compound 11] |  |  | 100% | 100% | 100% | 100* % | 
4 | CCSc1c(Cl)cc(F)c(C(=O)Nc2nnnn2C)c1Cl [compound 12, 2,4-dichloro-3-ethylsulfanyl-6-fluoro-N-(1-methyltetrazol-5-yl)benzamide] |  |  | 100% | 100% | 100% | 100* % | 
5 | CCS(=O)(=O)c1c(Cl)cc(F)c(C(=O)Nc2nnnn2C)c1Cl [compound 13, 2,4-Dichloro-3-ethylsulfonyl-6-fluoro-N-(1-methyltetrazol-5-yl)benzamide] |  |  | 100% | 100% | 100% | 100* % | 
6 | CC[S+]([O-])c1c(Cl)cc(F)c(C(=O)Nc2ncnn2C)c1Cl (stereo not drawn) [compound 14] |  |  | 100% | 100% | 100% | 100* % | 
7 | CCS(=O)(=O)c1c(Cl)cc(F)c(C(=O)Nc2ncnn2C)c1Cl [compound 15] | 100% | 100% |  |  |  |  | [%] damage to weed IV (APESV) (Agrostis spica-venti): 98* %; [%] damage to weed IX (POLCO) (Polygonum convolvulus; 500 g/ha): 98%
8 | CC[S+]([O-])c1c(Cl)cc(F)c(C(=O)Nc2nnnn2C)c1Cl (stereo not drawn) [compound 16, 2,4-Dichloro-3-ethylsulfinyl-6-fluoro-N-(1-methyltetrazol-5-yl)benzamide] |  |  | 100% | 100% | 100% | 100* % | 
9 | CCOc1c(Cl)cc(F)c(C(=O)Nc2ncnn2C)c1Cl [compound 17] | 100% | 100% |  |  |  |  | [%] damage to weed VII (ECHCG) (Echinochloa crus-galli [3]): 98; %; [%] damage to weed VII (ECHCG) (Echinochloa crus-galli [4]): 85* %
10 | CCSc1c(Cl)cc(Cl)c(C(=O)Nc2ncnn2C)c1Cl [compound 61] | 100% | 100% |  |  |  |  | [%] damage to weed VII (ECHCG) (Echinochloa crus-galli [3]): 98%; [%] damage to weed IV (APESV) (Agrostis spica-venti): 98* %
